Experimental data published in ChEMBL document CHEMBL2417377, “Hit-to-lead optimization and kinase selectivity of imidazo[1,2-a]quinoxalin-4-amine derived JNK1 inhibitors” (Bioorg Med Chem Lett, 2013).

Columns and labels:
[1] = biological target: Serine/threonine-protein kinase Nek6 (Homo sapiens) (UniProt Q9HC98); assay: Inhibition of NEK6 in human PC3 cell lysates at 10 uM using desthiobiotin-tagged ATP probe AX9989 followed by trypsinization by LC/MS analysis; details: PC-3
[2] = biological target: T1, Dual specificity mitogen-activated protein kinase kinase 4 (Homo sapiens) (UniProt P45985); assay: Inhibition of MAP2K4 in human PC3 cell lysates at 10 uM using desthiobiotin-tagged ATP probe AX9989 followed by trypsinization by LC/MS analysis; details: PC-3
T1 sequence (whole entry): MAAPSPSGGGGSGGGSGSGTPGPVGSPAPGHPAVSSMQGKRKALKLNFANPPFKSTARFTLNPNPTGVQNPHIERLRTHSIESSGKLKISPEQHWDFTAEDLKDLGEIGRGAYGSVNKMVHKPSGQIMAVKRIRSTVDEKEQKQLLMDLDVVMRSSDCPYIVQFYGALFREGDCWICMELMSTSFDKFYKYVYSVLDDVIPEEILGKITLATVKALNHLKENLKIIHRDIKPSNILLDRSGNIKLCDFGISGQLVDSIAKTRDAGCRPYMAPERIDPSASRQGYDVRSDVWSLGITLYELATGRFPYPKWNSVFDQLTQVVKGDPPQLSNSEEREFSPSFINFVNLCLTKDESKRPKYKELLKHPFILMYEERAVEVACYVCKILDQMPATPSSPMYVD

[3] = biological target: Glycogen synthase kinase-3 beta (Homo sapiens) (UniProt P49841); assay: Inhibition of GSK3beta in human PC3 cell lysates at 10 uM using desthiobiotin-tagged ATP probe AX9989 followed by trypsinization by LC/MS analysis; details: PC-3
Chain of Glycogen synthase kinase-3 beta (Homo sapiens) (P49841 whole entry, looked up, canonical isoform): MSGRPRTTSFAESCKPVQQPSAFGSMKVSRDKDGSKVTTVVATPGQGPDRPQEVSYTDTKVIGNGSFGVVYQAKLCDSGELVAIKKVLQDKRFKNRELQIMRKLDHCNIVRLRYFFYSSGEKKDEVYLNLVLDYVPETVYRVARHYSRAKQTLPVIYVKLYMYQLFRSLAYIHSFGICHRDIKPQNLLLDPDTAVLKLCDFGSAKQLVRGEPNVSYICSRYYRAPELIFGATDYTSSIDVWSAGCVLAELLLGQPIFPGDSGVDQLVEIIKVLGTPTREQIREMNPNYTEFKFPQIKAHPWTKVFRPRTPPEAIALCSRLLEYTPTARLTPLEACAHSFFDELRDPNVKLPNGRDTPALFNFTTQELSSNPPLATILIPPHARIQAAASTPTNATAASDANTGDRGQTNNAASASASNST

[4] = biological target: T2, Phosphorylase b kinase gamma catalytic chain, liver/testis isoform (Homo sapiens) (UniProt P15735); assay: Inhibition of PHKgamma2 in human PC3 cell lysates at 10 uM using desthiobiotin-tagged ATP probe AX9989 followed by trypsinization by LC/MS analysis; details: PC-3
T2 sequence (whole entry): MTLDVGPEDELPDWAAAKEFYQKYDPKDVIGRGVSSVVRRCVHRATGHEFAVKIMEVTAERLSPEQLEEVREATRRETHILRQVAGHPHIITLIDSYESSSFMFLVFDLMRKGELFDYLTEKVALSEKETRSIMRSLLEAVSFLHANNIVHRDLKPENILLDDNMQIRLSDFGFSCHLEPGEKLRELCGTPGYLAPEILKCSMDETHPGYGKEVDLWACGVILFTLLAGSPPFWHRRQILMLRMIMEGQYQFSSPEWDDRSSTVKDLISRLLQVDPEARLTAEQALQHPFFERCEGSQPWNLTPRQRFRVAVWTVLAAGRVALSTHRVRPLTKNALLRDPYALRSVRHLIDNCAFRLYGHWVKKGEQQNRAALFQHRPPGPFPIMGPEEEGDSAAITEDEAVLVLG

[5] = biological target: T3, Serine/threonine-protein kinase tousled-like 1 (Homo sapiens) (UniProt Q9UKI8); assay: Inhibition of TLK1 in human PC3 cell lysates at 10 uM using desthiobiotin-tagged ATP probe AX9989 followed by trypsinization by LC/MS analysis; details: PC-3
T3 sequence (whole entry): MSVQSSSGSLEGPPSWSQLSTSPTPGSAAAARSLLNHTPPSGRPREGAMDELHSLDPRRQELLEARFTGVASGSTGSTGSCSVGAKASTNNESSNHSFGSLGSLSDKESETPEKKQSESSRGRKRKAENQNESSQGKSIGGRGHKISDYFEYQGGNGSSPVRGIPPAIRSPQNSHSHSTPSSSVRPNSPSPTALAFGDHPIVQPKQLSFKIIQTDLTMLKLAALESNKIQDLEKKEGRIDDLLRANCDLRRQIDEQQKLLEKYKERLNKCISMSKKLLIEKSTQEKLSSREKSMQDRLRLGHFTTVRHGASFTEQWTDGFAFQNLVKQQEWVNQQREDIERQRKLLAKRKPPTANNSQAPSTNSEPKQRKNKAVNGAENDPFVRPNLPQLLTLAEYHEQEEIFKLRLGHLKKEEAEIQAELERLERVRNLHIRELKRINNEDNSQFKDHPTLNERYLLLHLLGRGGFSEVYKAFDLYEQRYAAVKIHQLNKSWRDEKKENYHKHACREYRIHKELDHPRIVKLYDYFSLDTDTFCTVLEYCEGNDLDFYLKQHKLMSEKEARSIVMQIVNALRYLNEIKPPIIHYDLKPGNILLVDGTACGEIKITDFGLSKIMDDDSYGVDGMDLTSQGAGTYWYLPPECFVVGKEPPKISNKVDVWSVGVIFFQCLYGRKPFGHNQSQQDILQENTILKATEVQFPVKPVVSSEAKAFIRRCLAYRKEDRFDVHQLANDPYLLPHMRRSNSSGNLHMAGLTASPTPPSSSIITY

[6] = biological target: Dual specificity mitogen-activated protein kinase kinase 1 (Homo sapiens) (UniProt Q02750); assay: Inhibition of MAP2K1 in human PC3 cell lysates at 10 uM using desthiobiotin-tagged ATP probe AX9989 followed by trypsinization by LC/MS analysis; details: PC-3
Chain of Dual specificity mitogen-activated protein kinase kinase 1 (Homo sapiens) (Q02750 whole entry): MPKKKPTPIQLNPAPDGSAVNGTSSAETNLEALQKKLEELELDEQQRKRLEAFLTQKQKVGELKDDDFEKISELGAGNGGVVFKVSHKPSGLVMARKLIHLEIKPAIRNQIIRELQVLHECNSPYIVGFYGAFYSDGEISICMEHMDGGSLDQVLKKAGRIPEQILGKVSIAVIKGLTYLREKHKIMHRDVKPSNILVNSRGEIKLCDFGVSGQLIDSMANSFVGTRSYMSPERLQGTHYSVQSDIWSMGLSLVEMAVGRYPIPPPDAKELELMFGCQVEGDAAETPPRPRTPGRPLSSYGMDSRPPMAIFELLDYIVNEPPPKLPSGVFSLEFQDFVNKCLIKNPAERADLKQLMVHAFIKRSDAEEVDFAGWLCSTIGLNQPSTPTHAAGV

PC-3 = assay: Inhibition of ANPbeta in human PC3 cell lysates at 10 uM using desthiobiotin-tagged ATP probe AX9989 followed by trypsinization by LC/MS analysis; assay type: cell-free
[7] = biological target: T4, Serine/threonine-protein kinase STK11 (Homo sapiens) (UniProt Q15831); assay: Inhibition of LKB1 in human PC3 cell lysates at 10 uM using desthiobiotin-tagged ATP probe AX9989 followed by trypsinization by LC/MS analysis; details: PC-3
T4 sequence (whole entry): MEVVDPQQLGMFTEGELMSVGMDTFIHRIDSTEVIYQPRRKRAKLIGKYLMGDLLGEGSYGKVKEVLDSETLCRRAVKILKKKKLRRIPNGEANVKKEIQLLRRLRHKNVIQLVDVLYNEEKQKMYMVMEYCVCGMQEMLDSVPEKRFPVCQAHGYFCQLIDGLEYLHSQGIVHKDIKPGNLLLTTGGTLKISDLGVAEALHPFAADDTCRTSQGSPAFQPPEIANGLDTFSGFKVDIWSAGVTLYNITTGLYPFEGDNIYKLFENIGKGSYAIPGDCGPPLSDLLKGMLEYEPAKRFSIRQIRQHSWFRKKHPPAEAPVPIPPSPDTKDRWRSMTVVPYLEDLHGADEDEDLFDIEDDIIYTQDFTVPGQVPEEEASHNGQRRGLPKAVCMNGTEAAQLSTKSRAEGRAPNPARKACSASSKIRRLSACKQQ

[8] = biological target: PI4KA/PI4KAP2 (Homo sapiens) (UniProt P42356+A4QPH2); assay: Inhibition of PI4KA/PI4KAP2 in human PC3 cell lysates at 10 uM using desthiobiotin-tagged ATP probe AX9989 followed by trypsinization by LC/MS analysis; assay type: protein-complex assay; details: PC-3
Chain of PI4KA/PI4KAP2 (Homo sapiens) (A4QPH2 whole entry, looked up): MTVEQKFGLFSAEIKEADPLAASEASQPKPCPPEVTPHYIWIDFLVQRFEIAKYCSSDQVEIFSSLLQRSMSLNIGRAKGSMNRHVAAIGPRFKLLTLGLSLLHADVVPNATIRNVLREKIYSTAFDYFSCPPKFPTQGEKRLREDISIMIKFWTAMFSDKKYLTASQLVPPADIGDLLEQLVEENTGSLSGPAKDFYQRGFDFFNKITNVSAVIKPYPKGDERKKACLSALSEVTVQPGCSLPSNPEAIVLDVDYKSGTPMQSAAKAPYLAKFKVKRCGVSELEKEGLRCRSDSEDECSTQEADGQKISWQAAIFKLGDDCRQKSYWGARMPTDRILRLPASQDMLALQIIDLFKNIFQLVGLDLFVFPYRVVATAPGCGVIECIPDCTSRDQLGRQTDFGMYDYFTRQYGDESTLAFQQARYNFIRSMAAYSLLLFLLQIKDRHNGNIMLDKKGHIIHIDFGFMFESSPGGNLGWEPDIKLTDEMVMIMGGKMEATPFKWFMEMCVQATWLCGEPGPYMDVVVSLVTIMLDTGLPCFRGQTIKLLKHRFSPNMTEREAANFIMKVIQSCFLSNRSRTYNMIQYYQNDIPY
Chain of PI4KA/PI4KAP2 (Homo sapiens) (P42356 whole entry, looked up): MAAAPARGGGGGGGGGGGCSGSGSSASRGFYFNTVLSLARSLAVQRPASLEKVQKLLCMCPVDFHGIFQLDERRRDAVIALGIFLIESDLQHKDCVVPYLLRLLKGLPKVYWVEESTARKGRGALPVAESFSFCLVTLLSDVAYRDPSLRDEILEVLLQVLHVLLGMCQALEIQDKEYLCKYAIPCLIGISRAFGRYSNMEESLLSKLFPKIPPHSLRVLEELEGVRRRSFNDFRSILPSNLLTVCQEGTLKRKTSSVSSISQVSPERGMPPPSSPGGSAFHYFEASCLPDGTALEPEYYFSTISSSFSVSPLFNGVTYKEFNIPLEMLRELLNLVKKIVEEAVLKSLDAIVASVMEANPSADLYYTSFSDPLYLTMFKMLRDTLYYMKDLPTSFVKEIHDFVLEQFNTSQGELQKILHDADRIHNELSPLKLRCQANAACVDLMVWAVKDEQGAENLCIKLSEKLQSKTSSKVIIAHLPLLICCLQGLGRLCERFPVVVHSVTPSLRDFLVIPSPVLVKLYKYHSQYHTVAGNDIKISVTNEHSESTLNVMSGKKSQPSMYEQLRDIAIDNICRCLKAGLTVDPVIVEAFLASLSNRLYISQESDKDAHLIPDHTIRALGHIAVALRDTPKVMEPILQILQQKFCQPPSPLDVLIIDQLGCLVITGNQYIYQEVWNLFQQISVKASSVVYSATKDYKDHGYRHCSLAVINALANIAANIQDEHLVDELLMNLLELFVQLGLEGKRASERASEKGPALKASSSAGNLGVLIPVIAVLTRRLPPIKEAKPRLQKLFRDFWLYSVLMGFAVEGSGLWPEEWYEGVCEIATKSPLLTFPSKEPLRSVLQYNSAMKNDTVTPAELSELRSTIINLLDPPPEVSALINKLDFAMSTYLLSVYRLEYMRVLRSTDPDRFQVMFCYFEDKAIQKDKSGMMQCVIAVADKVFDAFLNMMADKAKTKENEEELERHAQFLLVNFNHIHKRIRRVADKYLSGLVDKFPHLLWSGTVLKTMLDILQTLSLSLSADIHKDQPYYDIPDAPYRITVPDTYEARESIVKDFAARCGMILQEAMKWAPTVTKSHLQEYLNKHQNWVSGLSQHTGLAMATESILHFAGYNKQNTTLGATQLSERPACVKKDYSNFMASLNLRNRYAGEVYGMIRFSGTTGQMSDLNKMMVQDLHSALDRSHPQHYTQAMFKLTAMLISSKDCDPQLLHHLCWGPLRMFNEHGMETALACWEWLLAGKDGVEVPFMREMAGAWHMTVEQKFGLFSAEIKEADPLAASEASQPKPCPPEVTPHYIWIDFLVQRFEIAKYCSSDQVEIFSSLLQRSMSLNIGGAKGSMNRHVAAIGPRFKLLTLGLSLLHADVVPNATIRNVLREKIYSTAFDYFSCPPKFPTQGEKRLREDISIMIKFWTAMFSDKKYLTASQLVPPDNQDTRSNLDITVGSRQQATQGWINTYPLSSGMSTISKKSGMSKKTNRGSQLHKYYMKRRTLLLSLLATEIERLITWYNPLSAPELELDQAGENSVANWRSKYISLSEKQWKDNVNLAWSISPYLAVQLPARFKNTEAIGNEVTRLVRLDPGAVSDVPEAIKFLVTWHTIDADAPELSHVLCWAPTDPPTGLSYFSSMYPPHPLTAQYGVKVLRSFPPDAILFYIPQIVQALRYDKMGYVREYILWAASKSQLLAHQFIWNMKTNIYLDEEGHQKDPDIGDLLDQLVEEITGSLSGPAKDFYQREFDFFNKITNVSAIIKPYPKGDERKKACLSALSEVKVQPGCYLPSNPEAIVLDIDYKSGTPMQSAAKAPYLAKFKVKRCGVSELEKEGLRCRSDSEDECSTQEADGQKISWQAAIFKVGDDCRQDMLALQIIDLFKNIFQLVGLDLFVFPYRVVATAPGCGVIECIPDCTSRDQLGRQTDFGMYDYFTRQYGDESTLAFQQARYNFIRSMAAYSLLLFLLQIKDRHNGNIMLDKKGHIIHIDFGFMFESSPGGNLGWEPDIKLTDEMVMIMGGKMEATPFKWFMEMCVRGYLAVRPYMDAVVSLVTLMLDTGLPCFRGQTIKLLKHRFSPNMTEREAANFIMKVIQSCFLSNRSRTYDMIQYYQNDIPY

[9] = biological target: Serine/threonine-protein kinase 38-like (Homo sapiens) (UniProt Q9Y2H1); assay: Inhibition of NDR2 in human PC3 cell lysates at 10 uM using desthiobiotin-tagged ATP probe AX9989 followed by trypsinization by LC/MS analysis; details: PC-3
Chain of Serine/threonine-protein kinase 38-like (Homo sapiens) (Q9Y2H1 2-464 limits assumed): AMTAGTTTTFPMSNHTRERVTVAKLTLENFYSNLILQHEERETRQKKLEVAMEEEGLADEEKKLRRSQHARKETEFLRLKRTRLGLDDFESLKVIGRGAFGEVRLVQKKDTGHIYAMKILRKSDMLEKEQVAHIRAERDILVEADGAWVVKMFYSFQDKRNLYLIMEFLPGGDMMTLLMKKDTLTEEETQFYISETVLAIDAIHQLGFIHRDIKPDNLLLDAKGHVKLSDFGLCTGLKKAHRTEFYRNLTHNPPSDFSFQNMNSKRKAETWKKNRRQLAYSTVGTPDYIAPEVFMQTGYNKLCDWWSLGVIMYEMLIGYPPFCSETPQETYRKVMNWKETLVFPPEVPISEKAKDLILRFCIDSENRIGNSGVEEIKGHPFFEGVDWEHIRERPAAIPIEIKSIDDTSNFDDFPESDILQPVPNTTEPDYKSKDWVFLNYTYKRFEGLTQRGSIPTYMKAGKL

[10] = biological target: Cyclin-dependent kinase 11B (Homo sapiens) (UniProt P21127); assay: Inhibition of CDK11 in human PC3 cell lysates at 10 uM using desthiobiotin-tagged ATP probe AX9989 followed by trypsinization by LC/MS analysis; details: PC-3
Chain of Cyclin-dependent kinase 11B (Homo sapiens) (P21127 whole entry): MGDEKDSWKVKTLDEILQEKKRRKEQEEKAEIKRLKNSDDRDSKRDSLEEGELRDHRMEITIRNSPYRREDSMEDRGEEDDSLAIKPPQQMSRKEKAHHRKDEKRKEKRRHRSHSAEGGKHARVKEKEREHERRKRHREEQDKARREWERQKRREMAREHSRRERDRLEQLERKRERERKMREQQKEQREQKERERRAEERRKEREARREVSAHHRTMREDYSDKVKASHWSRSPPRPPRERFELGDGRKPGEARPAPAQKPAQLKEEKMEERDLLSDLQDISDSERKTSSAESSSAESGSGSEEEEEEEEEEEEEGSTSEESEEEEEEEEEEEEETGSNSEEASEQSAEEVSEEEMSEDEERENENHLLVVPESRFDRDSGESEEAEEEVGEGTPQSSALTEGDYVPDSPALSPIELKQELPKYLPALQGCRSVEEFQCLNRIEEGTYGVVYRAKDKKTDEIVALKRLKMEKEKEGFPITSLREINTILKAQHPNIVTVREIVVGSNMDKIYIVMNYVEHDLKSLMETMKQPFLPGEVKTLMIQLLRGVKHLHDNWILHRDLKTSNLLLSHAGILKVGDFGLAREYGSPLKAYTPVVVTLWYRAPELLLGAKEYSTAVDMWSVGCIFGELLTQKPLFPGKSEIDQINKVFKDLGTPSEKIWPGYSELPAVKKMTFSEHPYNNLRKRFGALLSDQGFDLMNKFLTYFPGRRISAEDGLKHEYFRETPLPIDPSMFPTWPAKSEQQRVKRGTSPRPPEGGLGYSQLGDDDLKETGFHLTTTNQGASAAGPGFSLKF

Measured: inhibition

Chain of Serine/threonine-protein kinase Nek6 (Homo sapiens) (Q9HC98 whole entry): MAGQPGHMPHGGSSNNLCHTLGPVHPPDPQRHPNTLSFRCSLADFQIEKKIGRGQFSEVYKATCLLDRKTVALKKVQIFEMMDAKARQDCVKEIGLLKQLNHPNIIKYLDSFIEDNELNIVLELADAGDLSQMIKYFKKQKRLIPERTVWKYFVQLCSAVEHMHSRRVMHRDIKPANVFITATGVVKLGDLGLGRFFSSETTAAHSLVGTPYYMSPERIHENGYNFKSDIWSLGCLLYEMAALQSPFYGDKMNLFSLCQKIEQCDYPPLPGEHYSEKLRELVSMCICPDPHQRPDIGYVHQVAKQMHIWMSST

O=C(NC1(c2ccc(F)cc2)CC1)c1ccc2nc(N[C@H]3CC[C@H](O)CC3)c3nccn3c2c1
< 35%: all assays above

O=C(NC1(Cc2ccc(F)cc2)CC1)c1ccc2nc(N[C@H]3CC[C@H](O)CC3)c3nccn3c2c1
< 35%: all assays above
